System: MV-4-11 cells
Test: Gene expression microarray analysis (Affymetrix PrimeView) and GSEA
Type: cell-based, human
Design: RFU PODN (11730768_x_at) / Fold change /veh PODN (11730768_x_at) / RFU LINC00158 (11744669_a_at) / Fold change /veh LINC00158 (11744669_a_at) / RFU DUSP10 (11751237_a_at) / Fold change /veh DUSP10 (11751237_a_at) / RFU ID3 (11757404_x_at) / Fold change /veh ID3 (11757404_x_at) / RFU PLEKHG5 (11737974_s_at) / Fold change /veh PLEKHG5 (11737974_s_at) / RFU LRRC4B (11730491_at) / Fold change /veh LRRC4B (11730491_at) / RFU GIMAP4 (11747438_a_at) / Fold change /veh GIMAP4 (11747438_a_at) / RFU KRT8 (11758183_x_at) / Fold change /veh KRT8 (11758183_x_at) / RFU CNN1 (11734310_a_at) / Fold change /veh CNN1 (11734310_a_at) / RFU VPS37D (11726825_at) / Fold change /veh VPS37D (11726825_at) / RFU C10orf10 (11716522_x_at) / Fold change /veh C10orf10 (11716522_x_at) / RFU KIR2DL2 /// KIR2DL4 /// KIR2DL5A /// KIR2DL5B /// KIR2DS1 /// KIR2DS2 /// KIR2DS3 /// KIR2DS4 /// KIR3DL3 /// KIR3DL3 /// KIR3DS1 (11738374_at) / Fold change /veh KIR2DL2 /// KIR2DL4 /// KIR2DL5A /// KIR2DL5B /// KIR2DS1 /// KIR2DS2 /// KIR2DS3 /// KIR2DS4 /// KIR3DL3 /// KIR3DL3 /// KIR3DS1 (11738374_at) / RFU C1QL1 (11718748_at) / Fold change /veh C1QL1 (11718748_at) / RFU TMPRSS4 (11747572_a_at) / Fold change /veh TMPRSS4 (11747572_a_at) / RFU HAMP (11756126_x_at) / Fold change /veh HAMP (11756126_x_at) / RFU RNFT2 (11725882_a_at) / Fold change /veh RNFT2 (11725882_a_at) / RFU NR4A2 (11747474_a_at) / Fold change /veh NR4A2 (11747474_a_at) / RFU ABCC12 (11746883_a_at) / Fold change /veh ABCC12 (11746883_a_at) / RFU TMEM136 (11760407_x_at) / Fold change /veh TMEM136 (11760407_x_at) / RFU CLDN22 /// WWC2 (11732394_at) / Fold change /veh CLDN22 /// WWC2 (11732394_at) / RFU HLA-DPB1 (11760878_x_at) / Fold change /veh HLA-DPB1 (11760878_x_at) / RFU SPINT1 (11716480_a_at) / Fold change /veh SPINT1 (11716480_a_at) / RFU GAP43 (11754022_s_at) / Fold change /veh GAP43 (11754022_s_at) / RFU A4GNT (11735810_at) / Fold change /veh A4GNT (11735810_at) / RFU PRB3 (11715151_x_at) / Fold change /veh PRB3 (11715151_x_at) / RFU TUBB4B (11761932_at) / Fold change /veh TUBB4B (11761932_at) / RFU CAPN14 (11732068_a_at) / Fold change /veh CAPN14 (11732068_a_at) / RFU TMCC2 (11721928_a_at) / Fold change /veh TMCC2 (11721928_a_at) / RFU IRGQ (11745062_a_at) / Fold change /veh IRGQ (11745062_a_at) / RFU FAM174B (11720279_a_at) / Fold change /veh FAM174B (11720279_a_at) / RFU TMPRSS4 (11748680_a_at) / Fold change /veh TMPRSS4 (11748680_a_at) / RFU FAM212B (11763350_a_at) / Fold change /veh FAM212B (11763350_a_at) / RFU PLEKHG5 (11743358_a_at) / Fold change /veh PLEKHG5 (11743358_a_at) / RFU ZSCAN30 (11745921_a_at) / Fold change /veh ZSCAN30 (11745921_a_at) / RFU CMKLR1 (11741424_a_at) / Fold change /veh CMKLR1 (11741424_a_at) / RFU LOC101060620 /// MAPK8IP1 (11723275_at) / Fold change /veh LOC101060620 /// MAPK8IP1 (11723275_at) / RFU SPTSSB (11747773_x_at) / Fold change /veh SPTSSB (11747773_x_at) / RFU PRSS12 (11739890_at) / Fold change /veh PRSS12 (11739890_at) / RFU BIN1 (11741810_x_at) / Fold change /veh BIN1 (11741810_x_at) / RFU WNT11 (11732464_a_at) / Fold change /veh WNT11 (11732464_a_at) / RFU C10orf10 (11716521_a_at) / Fold change /veh C10orf10 (11716521_a_at) / RFU C5orf56 (11738089_at) / Fold change /veh C5orf56 (11738089_at) / RFU CYB561 (11721691_x_at) / Fold change /veh CYB561 (11721691_x_at) / RFU ANKRD19P (11752326_a_at) / Fold change /veh ANKRD19P (11752326_a_at) / RFU OR2T12 /// OR2T33 /// OR2T8 (11738714_s_at) / Fold change /veh OR2T12 /// OR2T33 /// OR2T8 (11738714_s_at) / RFU VCAN (11748164_a_at) / Fold change /veh VCAN (11748164_a_at) / RFU JSRP1 (11732532_at) / Fold change /veh JSRP1 (11732532_at) / RFU KRTAP10-11 (11738290_x_at) / Fold change /veh KRTAP10-11 (11738290_x_at) / RFU MYO3A (11730013_a_at) / Fold change /veh MYO3A (11730013_a_at) / RFU EBF3 (11725865_a_at) / Fold change /veh EBF3 (11725865_a_at) / RFU CAMK2N1 (11719241_x_at) / Fold change /veh CAMK2N1 (11719241_x_at) / RFU C5orf56 (11738088_a_at) / Fold change /veh C5orf56 (11738088_a_at) / RFU OLFML3 (11715873_a_at) / Fold change /veh OLFML3 (11715873_a_at) / RFU LOC100653217 /// NTM (11731650_a_at) / Fold change /veh LOC100653217 /// NTM (11731650_a_at) / RFU MAPK11 (11762145_a_at) / Fold change /veh MAPK11 (11762145_a_at) / RFU FIZ1 (11724087_x_at) / Fold change /veh FIZ1 (11724087_x_at) / RFU OASL (11726364_x_at) / Fold change /veh OASL (11726364_x_at) / RFU SOX15 (11748057_x_at) / Fold change /veh SOX15 (11748057_x_at) / RFU CD79A (11719716_a_at) / Fold change /veh CD79A (11719716_a_at) / RFU HIST1H1D (11736915_at) / Fold change /veh HIST1H1D (11736915_at) / RFU CASKIN2 (11723855_a_at) / Fold change /veh CASKIN2 (11723855_a_at) / RFU LOC730098 (11760151_x_at) / Fold change /veh LOC730098 (11760151_x_at) / RFU OR4N2 (11742367_at) / Fold change /veh OR4N2 (11742367_at) / RFU PRRT2 (11749266_a_at) / Fold change /veh PRRT2 (11749266_a_at) / RFU SNX32 (11753110_a_at) / Fold change /veh SNX32 (11753110_a_at) / RFU CDHR5 (11726645_a_at) / Fold change /veh CDHR5 (11726645_a_at) / RFU RCAN1 (11760418_a_at) / Fold change /veh RCAN1 (11760418_a_at) / RFU FAM167A (11723789_a_at) / Fold change /veh FAM167A (11723789_a_at) / RFU FAM26E (11764081_at) / Fold change /veh FAM26E (11764081_at) / RFU ISYNA1 (11749810_s_at) / Fold change /veh ISYNA1 (11749810_s_at) / RFU ACY1 (11761880_at) / Fold change /veh ACY1 (11761880_at) / RFU 11764098_at / Fold change /veh 11764098_at / RFU SAMD14 (11745864_x_at) / Fold change /veh SAMD14 (11745864_x_at) / RFU NPB (11741838_a_at) / Fold change /veh NPB (11741838_a_at) / RFU TMPRSS6 (11731388_a_at) / Fold change /veh TMPRSS6 (11731388_a_at) / RFU KRTAP10-2 (11738614_at) / Fold change /veh KRTAP10-2 (11738614_at) / RFU ARHGAP8 /// PRR5-ARHGAP8 (11727945_x_at) / Fold change /veh ARHGAP8 /// PRR5-ARHGAP8 (11727945_x_at) / RFU KRTAP5-7 /// NADSYN1 (11734609_at) / Fold change /veh KRTAP5-7 /// NADSYN1 (11734609_at) / RFU RASL12 (11751679_a_at) / Fold change /veh RASL12 (11751679_a_at) / RFU CDKN2B (11736163_a_at) / Fold change /veh CDKN2B (11736163_a_at) / RFU PRF1 (11729649_at) / Fold change /veh PRF1 (11729649_at) / RFU, ZNF638 /// ZNF638-IT1 / Fold change vs veh, ZNF638 /// ZNF638-IT1 / RFU, PANK3 / Fold change vs veh, PANK3 / RFU, SH3YL1 / Fold change vs veh, SH3YL1 / RFU, ZEB2 / Fold change vs veh, ZEB2 / RFU, NRIP1 / Fold change vs veh, NRIP1 / RFU, PTTG1IP / Fold change vs veh, PTTG1IP / RFU, CAPN2 / Fold change vs veh, CAPN2 / RFU, MED14 / Fold change vs veh, MED14 / RFU, SNORA58 / Fold change vs veh, SNORA58 / RFU, C1orf63 / Fold change vs veh, C1orf63 / RFU, LRRFIP1 / Fold change vs veh, LRRFIP1 / RFU, NDUFAF7 / Fold change vs veh, NDUFAF7 / RFU, SLC12A2 / Fold change vs veh, SLC12A2 / RFU, IBTK / Fold change vs veh, IBTK / RFU, ESF1 / Fold change vs veh, ESF1 / Fold change vs veh, TMEM50B / RFU, TAOK1 / Fold change vs veh, TAOK1 / RFU, ACBD3 / Fold change vs veh, ACBD3 / RFU, TMA16 / Fold change vs veh, TMA16 / RFU, RWDD3 / Fold change vs veh, RWDD3 / RFU, BCAT1 / Fold change vs veh, BCAT1 / RFU, EDEM3 / Fold change vs veh, EDEM3 / RFU, TMEM33 / Fold change vs veh, TMEM33 / RFU, WDR75 / Fold change vs veh, WDR75 / RFU, AHCTF1 / Fold change vs veh, AHCTF1 / RFU, TFRC / Fold change vs veh, TFRC / RFU, ZDHHC17 / Fold change vs veh, ZDHHC17 / RFU, NOM1 / Fold change vs veh, NOM1 / RFU, ARL8B / Fold change vs veh, ARL8B / RFU, ZBTB11 / Fold change vs veh, ZBTB11 / RFU, TAMM41 / Fold change vs veh, TAMM41 / RFU, KIAA1704 /// LOC100996395 / Fold change vs veh, KIAA1704 /// LOC100996395 / RFU, ING1 / Fold change vs veh, ING1 / RFU, TRMT61B / Fold change vs veh, TRMT61B / RFU, FUBP3 / Fold change vs veh, FUBP3 / RFU, TP53 / Fold change vs veh, TP53 / RFU, TNKS2 / Fold change vs veh, TNKS2 / RFU, ZFP14 / Fold change vs veh, ZFP14 / RFU, ACTR2 / Fold change vs veh, ACTR2 / RFU, PPP3R1 / Fold change vs veh, PPP3R1 / RFU, PIK3R1 / Fold change vs veh, PIK3R1 / RFU, HNRNPA1 / Fold change vs veh, HNRNPA1 / RFU, RNF170 / Fold change vs veh, RNF170 / RFU, ZNF28 / Fold change vs veh, ZNF28 / RFU, RNGTT / Fold change vs veh, RNGTT / RFU, OGT / Fold change vs veh, OGT / RFU, BRD1 / Fold change vs veh, BRD1 / RFU, MARS / Fold change vs veh, MARS / RFU, ZNF655 / Fold change vs veh, ZNF655 / RFU, FAHD1 / Fold change vs veh, FAHD1 / RFU, BDP1 / Fold change vs veh, BDP1 / RFU, LRRCC1 / Fold change vs veh, LRRCC1 / RFU, ARID1A / Fold change vs veh, ARID1A / RFU, ZNF146 / Fold change vs veh, ZNF146 / RFU, ZNF330 / Fold change vs veh, ZNF330 / RFU, GPN3 / Fold change vs veh, GPN3 / RFU, C9orf123 / Fold change vs veh, C9orf123 / RFU, N4BP2L2 / Fold change vs veh, N4BP2L2 / RFU, ARFIP1 / Fold change vs veh, ARFIP1 / RFU, FAM179B / Fold change vs veh, FAM179B / RFU, BCL10 / Fold change vs veh, BCL10 / RFU, UHRF1BP1L / Fold change vs veh, UHRF1BP1L / RFU, BET1 / Fold change vs veh, BET1 / RFU, CNOT2 / Fold change vs veh, CNOT2 / RFU, ZNF268 / Fold change vs veh, ZNF268 / Fold change vs veh, ZNF507 / RFU, DGCR2 / Fold change vs veh, DGCR2 / RFU, WDSUB1 / Fold change vs veh, WDSUB1 / Fold change vs veh, HSP90B1 /// MIR3652 / RFU, ADSS / Fold change vs veh, ADSS / RFU, GK / Fold change vs veh, GK / RFU, ZNF148 / Fold change vs veh, ZNF148 / RFU, TAF9 / Fold change vs veh, TAF9 / RFU, SLC1A5 / Fold change vs veh, SLC1A5 / RFU, SLMO2 / Fold change vs veh, SLMO2 / RFU, ABCC4 / Fold change vs veh, ABCC4 / RFU, LOC101060439 /// RAP1B / Fold change vs veh, LOC101060439 /// RAP1B / RFU, RFX7 / Fold change vs veh, RFX7 / RFU, GTPBP10 / Fold change vs veh, GTPBP10 / RFU, CNEP1R1 / Fold change vs veh, CNEP1R1 / RFU, BIVM-ERCC5 /// ERCC5 / Fold change vs veh, BIVM-ERCC5 /// ERCC5 / RFU, ILF3 / Fold change vs veh, ILF3 / RFU 11762660_at / Fold change /veh 11762660_at / RFU VCAN (11757783_s_at) / Fold change /veh VCAN (11757783_s_at) / RFU DDX43 (11728927_at) / Fold change /veh DDX43 (11728927_at) / RFU KRT8 (11758188_x_at) / Fold change /veh KRT8 (11758188_x_at) / RFU NKD1 (11759106_at) / Fold change /veh NKD1 (11759106_at) / RFU SRD5A1 (11742802_a_at) / Fold change /veh SRD5A1 (11742802_a_at) / RFU TPSAB1 /// TPSB2 (11721975_s_at) / Fold change /veh TPSAB1 /// TPSB2 (11721975_s_at) / RFU GSTM3 (11746129_a_at) / Fold change /veh GSTM3 (11746129_a_at) / RFU IL23R (11737362_x_at) / Fold change /veh IL23R (11737362_x_at) / RFU TMEM51 (11727254_a_at) / Fold change /veh TMEM51 (11727254_a_at) / RFU PIWIL2 (11732686_x_at) / Fold change /veh PIWIL2 (11732686_x_at) / RFU ORM1 (11744905_x_at) / Fold change /veh ORM1 (11744905_x_at) / RFU CCDC152 (11743942_at) / Fold change /veh CCDC152 (11743942_at) / RFU ECM1 (11717891_a_at) / Fold change /veh ECM1 (11717891_a_at) / RFU IL23R (11748794_a_at) / Fold change /veh IL23R (11748794_a_at) / RFU TNFAIP8L3 (11732012_x_at) / Fold change /veh TNFAIP8L3 (11732012_x_at) / RFU MBOAT4 (11741988_at) / Fold change /veh MBOAT4 (11741988_at) / RFU 11764193_at / Fold change /veh 11764193_at / RFU TMEM53 (11763286_at) / Fold change /veh TMEM53 (11763286_at) / RFU MAGEB2 (11727129_at) / Fold change /veh MAGEB2 (11727129_at) / RFU TMEM200A (11744735_a_at) / Fold change /veh TMEM200A (11744735_a_at) / RFU CCDC152 (11751479_a_at) / Fold change /veh CCDC152 (11751479_a_at) / RFU FAM211A (11726209_a_at) / Fold change /veh FAM211A (11726209_a_at) / RFU RGS16 (11746705_a_at) / Fold change /veh RGS16 (11746705_a_at) / RFU VCAN (11755009_s_at) / Fold change /veh VCAN (11755009_s_at) / RFU RHOB (11743442_s_at) / Fold change /veh RHOB (11743442_s_at) / RFU RGS16 (11720943_a_at) / Fold change /veh RGS16 (11720943_a_at) / RFU RGS16 (11720944_at) / Fold change /veh RGS16 (11720944_at) / RFU, VPS4B / Fold change vs veh, VPS4B / RFU, CREB1 / Fold change vs veh, CREB1 / RFU, DNAJC13 / Fold change vs veh, DNAJC13 / RFU, GNAQ / Fold change vs veh, GNAQ / RFU, CDK5R1 / Fold change vs veh, CDK5R1 / RFU, ZRANB3 / Fold change vs veh, ZRANB3 / RFU, CUL4A / Fold change vs veh, CUL4A / RFU, CCNY / Fold change vs veh, CCNY / RFU, UFL1 / Fold change vs veh, UFL1 / RFU, COG3 / Fold change vs veh, COG3 / RFU, DIAPH2 / Fold change vs veh, DIAPH2 / RFU, SKA2 / Fold change vs veh, SKA2 / RFU, AFF3 / Fold change vs veh, AFF3 / RFU, LMF1 / Fold change vs veh, LMF1 / RFU, IPO11 / Fold change vs veh, IPO11 / RFU, DFFB / Fold change vs veh, DFFB / RFU, FOXP1 / Fold change vs veh, FOXP1 / RFU, CARD8 / Fold change vs veh, CARD8 / RFU, STRN3 / Fold change vs veh, STRN3 / RFU, ADK / Fold change vs veh, ADK / RFU, RASSF2 / Fold change vs veh, RASSF2 / RFU, WIPF1 / Fold change vs veh, WIPF1 / RFU, LARP1B / Fold change vs veh, LARP1B / RFU, RASA1 / Fold change vs veh, RASA1 / RFU, RB1 / Fold change vs veh, RB1 / RFU, PPFIA1 / Fold change vs veh, PPFIA1 / RFU, MAT2A / Fold change vs veh, MAT2A / RFU, CCT5 / Fold change vs veh, CCT5 / RFU, WDR92 / Fold change vs veh, WDR92 / RFU, CUX1 / Fold change vs veh, CUX1 / RFU, TTC7A / Fold change vs veh, TTC7A / RFU, TMEM135 / Fold change vs veh, TMEM135 / RFU, DEPTOR / Fold change vs veh, DEPTOR / RFU, CPM / Fold change vs veh, CPM / RFU, DNAJB6 / Fold change vs veh, DNAJB6 / RFU, CACNA2D3 / Fold change vs veh, CACNA2D3 / RFU, DTX4 / Fold change vs veh, DTX4 / RFU, TFCP2 / Fold change vs veh, TFCP2 / RFU, GMCL1 /// GMCL1P1 / Fold change vs veh, GMCL1 /// GMCL1P1 / RFU, AEBP2 / Fold change vs veh, AEBP2 / RFU, SNHG1 /// SNORD22 /// SNORD25 /// SNORD26 /// SNORD27 /// SNORD28 /// SNORD29 /// SNORD31 / Fold change vs veh, SNHG1 /// SNORD22 /// SNORD25 /// SNORD26 /// SNORD27 /// SNORD28 /// SNORD29 /// SNORD31 / Fold change (Aza/veh), C12orf56 (ProbeSet 11735607_a_at) / Fold change (ACY-1035/veh), C12orf56 (ProbeSet 11735607_a_at) / Fold change (Aza/veh), FGFR1OP (ProbeSet 11751329_s_at) / Fold change (ACY-1035/veh), FGFR1OP (ProbeSet 11751329_s_at) / Fold change (Aza/veh), VPS36 (ProbeSet 11739960_a_at) / Fold change (ACY-1035/veh), VPS36 (ProbeSet 11739960_a_at) / RFU SYPL1 (11715823_x_at) / Fold change /veh SYPL1 (11715823_x_at) / RFU IGFBP7 (11715501_s_at) / Fold change /veh IGFBP7 (11715501_s_at) / RFU REEP3 (11722064_at) / Fold change /veh REEP3 (11722064_at) / RFU IGLL1 (11728026_x_at) / Fold change /veh IGLL1 (11728026_x_at): dose or concentration left out as unconfirmed
Conditions: ProbeSet 11719817_x_at; LIST B

Compound: Nc1ccc(-c2cccs2)cc1NC(=O)c1ccc2c(c1)cc(C1CC1)n2CCN1CCOCC1 [ACY-1035]
- RFU, BET1: 86.19 RFU

From PMC5218480 (PLoS ONE, 2017)
